Data taken from the supplement of paper PMC10307832.

Assays:
Experiment in all cases: relative viability (nuclei count vs DMSO), 5 days (fraction); higher = more cells survive
LCLC-97TM1 = test system: LCLC-97TM1
Method in brief: (§1)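 Lung cancer cell lines, seeded in 1536-well plates, were treated the following day by pin tool with a single drug or with five library-drug doses (not always all listed) in √10 steps on top of a fixed anchor-drug dose. Cells were fixed and nuclei stained in one step after 5 days, and nuclei were counted. Relative viability is the nuclei count for treated wells divided by that for vehicle wells, reported as medians of duplicate plates.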

RERF-LC-KJ = test system: RERF-LC-KJ
Method in brief: as §1

PC-14 = test system: PC-14
Method in brief: as §1

NCI-H1650 = test system: NCI-H1650
Method in brief: as §1

HCC-15 = test system: HCC-15
Method in brief: as §1

NCI-H322M = test system: NCI-H322M
Method in brief: as §1

NCI-H1355 = test system: NCI-H1355
Method in brief: as §1

NCI-H2405 = test system: NCI-H2405
Method in brief: as §1

LK-2 = test system: LK-2
Method in brief: as §1

NCI-H2228 = test system: NCI-H2228
Method in brief: as §1

CAL-12T = test system: CAL-12T
Method in brief: as §1

HCC-827 = test system: HCC-827
Method in brief: as §1

NCI-H1755 = test system: NCI-H1755
Method in brief: as §1

NCI-H1734 = test system: NCI-H1734
Method in brief: as §1

EKVX = test system: EKVX
Method in brief: as §1

NCI-H520 = test system: NCI-H520
Method in brief: as §1

PC-3 [JPC-3] = test system: PC-3 [JPC-3]
Method in brief: as §1

H3255 = test system: H3255
Method in brief: as §1

NCI-H1975 = test system: NCI-H1975
Method in brief: as §1

O=c1cc(-c2cccc3c2Sc2ccccc2S3)oc(N2CCOCC2)c1 + CC1(C)CCC(c2ccc(Cl)cc2)=C(CN2CCN(c3ccc(C(=O)NS(=O)(=O)c4ccc(N[C@H](CCN5CCOCC5)CSc5ccccc5)c(S(=O)(=O)C(F)(F)F)c4)cc3)CC2)C1 [Navitoclax] (partner 0.5 µM)
relative viability (LCLC-97TM1; first compound 0.08 µM): 0.425
relative viability (LCLC-97TM1; first compound 0.253 µM): 0.597
relative viability (LCLC-97TM1; first compound 0.8 µM): 0.374
relative viability (LCLC-97TM1; first compound 2.53 µM): 0.329
relative viability (LCLC-97TM1; first compound 8 µM): 0.372
relative viability (RERF-LC-KJ; first compound 0.08 µM): 0.768
relative viability (RERF-LC-KJ; first compound 0.253 µM): 0.711
relative viability (RERF-LC-KJ; first compound 0.8 µM): 0.934
relative viability (RERF-LC-KJ; first compound 2.53 µM): 0.798
relative viability (RERF-LC-KJ; first compound 8 µM): 0.856
relative viability (PC-14; first compound 0.08 µM): 1.04
relative viability (PC-14; first compound 0.253 µM): 1.31
relative viability (PC-14; first compound 0.8 µM): 1.01
relative viability (PC-14; first compound 2.53 µM): 0.946
relative viability (PC-14; first compound 8 µM): 1.05
relative viability (NCI-H1650; first compound 0.08 µM): 1.05
relative viability (NCI-H1650; first compound 0.253 µM): 1.21
relative viability (NCI-H1650; first compound 0.8 µM): 1.12
relative viability (NCI-H1650; first compound 2.53 µM): 1.17
relative viability (NCI-H1650; first compound 8 µM): 1.38
relative viability (HCC-15; first compound 0.08 µM): 0.68
relative viability (HCC-15; first compound 0.253 µM): 0.866
relative viability (HCC-15; first compound 0.8 µM): 0.615
relative viability (HCC-15; first compound 2.53 µM): 0.66
relative viability (HCC-15; first compound 8 µM): 0.705
relative viability (NCI-H322M; first compound 0.08 µM): 1.2
relative viability (NCI-H322M; first compound 0.253 µM): 1.3
relative viability (NCI-H322M; first compound 0.8 µM): 1.15
relative viability (NCI-H322M; first compound 2.53 µM): 1.16
relative viability (NCI-H322M; first compound 8 µM): 1.05
relative viability (NCI-H1355; first compound 0.08 µM): 0.982
relative viability (NCI-H1355; first compound 0.253 µM): 1.06
relative viability (NCI-H1355; first compound 0.8 µM): 0.847
relative viability (NCI-H1355; first compound 2.53 µM): 0.942
relative viability (NCI-H1355; first compound 8 µM): 0.685
relative viability (NCI-H2405; first compound 0.08 µM): 0.887
relative viability (NCI-H2405; first compound 0.253 µM): 0.761
relative viability (NCI-H2405; first compound 0.8 µM): 0.794
relative viability (NCI-H2405; first compound 2.53 µM): 0.825
relative viability (NCI-H2405; first compound 8 µM): 0.78
relative viability (LK-2; first compound 0.08 µM): 0.861
relative viability (LK-2; first compound 0.253 µM): 1.03
relative viability (LK-2; first compound 0.8 µM): 0.992
relative viability (LK-2; first compound 2.53 µM): 0.808
relative viability (LK-2; first compound 8 µM): 1.43
relative viability (NCI-H2228; first compound 0.08 µM): 1.17
relative viability (NCI-H2228; first compound 0.253 µM): 0.902
relative viability (NCI-H2228; first compound 0.8 µM): 0.818
relative viability (NCI-H2228; first compound 2.53 µM): 0.87
relative viability (NCI-H2228; first compound 8 µM): 0.852
relative viability (CAL-12T; first compound 0.08 µM): 1.16
relative viability (CAL-12T; first compound 0.253 µM): 1.26
relative viability (CAL-12T; first compound 0.8 µM): 1.48
relative viability (CAL-12T; first compound 2.53 µM): 1.2
relative viability (CAL-12T; first compound 8 µM): 1.31
relative viability (HCC-827; first compound 0.08 µM): 1.05
relative viability (HCC-827; first compound 0.253 µM): 1.06
relative viability (HCC-827; first compound 0.8 µM): 1.08
relative viability (HCC-827; first compound 2.53 µM): 0.998
relative viability (HCC-827; first compound 8 µM): 1.07
relative viability (NCI-H1755; first compound 0.08 µM): 1.05
relative viability (NCI-H1755; first compound 0.253 µM): 1.13
relative viability (NCI-H1755; first compound 0.8 µM): 0.992
relative viability (NCI-H1755; first compound 2.53 µM): 0.988
relative viability (NCI-H1755; first compound 8 µM): 0.939
relative viability (NCI-H1734; first compound 0.08 µM): 0.845
relative viability (NCI-H1734; first compound 0.253 µM): 1.13
relative viability (NCI-H1734; first compound 0.8 µM): 1.06
relative viability (NCI-H1734; first compound 2.53 µM): 0.818
relative viability (NCI-H1734; first compound 8 µM): 1.02
relative viability (EKVX; first compound 0.08 µM): 0.975
relative viability (EKVX; first compound 0.253 µM): 0.998
relative viability (EKVX; first compound 0.8 µM): 0.888
relative viability (EKVX; first compound 2.53 µM): 0.954
relative viability (EKVX; first compound 8 µM): 0.965
relative viability (NCI-H520; first compound 0.08 µM): 0.992
relative viability (NCI-H520; first compound 0.253 µM): 1.1
relative viability (NCI-H520; first compound 0.8 µM): 1.04
relative viability (NCI-H520; first compound 2.53 µM): 0.993
relative viability (NCI-H520; first compound 8 µM): 1.2
relative viability (PC-3 [JPC-3]; first compound 0.08 µM): 0.836
relative viability (PC-3 [JPC-3]; first compound 0.253 µM): 0.779
relative viability (PC-3 [JPC-3]; first compound 0.8 µM): 0.897
relative viability (PC-3 [JPC-3]; first compound 2.53 µM): 0.767
relative viability (PC-3 [JPC-3]; first compound 8 µM): 0.992
relative viability (H3255; first compound 0.08 µM): 0.55
relative viability (H3255; first compound 0.253 µM): 0.468
relative viability (H3255; first compound 0.8 µM): 0.474
relative viability (H3255; first compound 2.53 µM): 0.61
relative viability (H3255; first compound 8 µM): 0.698
relative viability (NCI-H1975; first compound 0.08 µM): 1.2
relative viability (NCI-H1975; first compound 0.253 µM): 1.4
relative viability (NCI-H1975; first compound 0.8 µM): 1.35
relative viability (NCI-H1975; first compound 2.53 µM): 1.16
relative viability (NCI-H1975; first compound 8 µM): 0.997
